Source: US10266537B2, “3-acetylenyl-pyrazole-pyrimidine derivative, and preparation method therefor and uses thereof” (Si Chuan University, priority 2015, dated 2019)
Where two headings read alike, the source gives them in different places.

Columns and labels:
HCT116 = assay: Cell proliferation inhibition assay (MTT); assay type: cell-based; settings: Homo sapiens, HCT-116; HCT116; MTT, 72 hours; read-out: Proliferation inhibitory activity IC50
Method: (§1) The cells were seeded in 96-well plates with 200 μL of cell suspension per well and incubated overnight in a cell culture medium with a cell concentration of 1 2×10^4 cells/mL. The next day, the supernatant was discarded (the suspension cell was centrifuged before it) and the cells were treated with gradient concentrations of the test compound, respectively. […] After 72 hours, add 20 μL of MTT reagent at a concentration of 5 mg/mL per well. After incubation for 2-4 h, the supernatant was discarded and 150 μL of DMSO was added to each well. […] Relative cell proliferation inhibition rate=([MUT]-[MUT])×100%/[MUT]. The experiment was repeated at least 3 times. Experimental data were expressed as mean, data statistics using t test, P<0.05 for the difference was statistically significant.

ARK5(h) = ARK5(h) (Homo sapiens (Human), UniProt O60285); assay: Kinase inhibition assay (KinaseProfiler, 33P-ATP); assay type: biochemical; settings: compound at 10 μM, read-out: The percentage of the remaining active protein
CHK1(h) = CHK1(h) (Homo sapiens (Human), UniProt O14757); assay: Kinase inhibition assay (KinaseProfiler, 33P-ATP); assay type: biochemical; settings: compound at 10 μM, read-out: The percentage of the remaining active protein
PAK1(h) = PAK1(h) (Homo sapiens (Human), UniProt Q13153); assay: Kinase inhibition assay (KinaseProfiler, 33P-ATP); assay type: biochemical; settings: compound at 10 μM, read-out: The percentage of the remaining active protein
c-Src(1-530) = c-Src(1-530) (Homo sapiens (Human), UniProt P12931); assay: Kinase inhibition assay (KinaseProfiler, 33P-ATP)
c-Src(1-530), sequence (P12931 whole entry, looked up): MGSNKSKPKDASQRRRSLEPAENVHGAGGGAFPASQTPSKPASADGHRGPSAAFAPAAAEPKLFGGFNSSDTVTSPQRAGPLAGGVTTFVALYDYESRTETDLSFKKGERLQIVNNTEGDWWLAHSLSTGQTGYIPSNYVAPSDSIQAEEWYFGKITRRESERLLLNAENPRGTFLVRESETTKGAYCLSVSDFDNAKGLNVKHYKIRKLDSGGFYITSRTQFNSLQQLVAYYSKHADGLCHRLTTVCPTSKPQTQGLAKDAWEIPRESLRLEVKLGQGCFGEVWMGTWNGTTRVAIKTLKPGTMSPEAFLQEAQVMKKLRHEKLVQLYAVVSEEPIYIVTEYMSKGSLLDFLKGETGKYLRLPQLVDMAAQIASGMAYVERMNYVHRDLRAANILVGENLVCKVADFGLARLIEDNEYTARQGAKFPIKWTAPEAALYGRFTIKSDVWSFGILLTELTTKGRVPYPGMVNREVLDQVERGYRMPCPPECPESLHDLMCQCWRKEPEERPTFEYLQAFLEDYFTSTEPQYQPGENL

JNK1α1(h) = JNK1α1(h) (Homo sapiens (Human), UniProt P45983); assay: Kinase inhibition assay (KinaseProfiler, 33P-ATP); assay type: biochemical; settings: compound at 10 μM, read-out: The percentage of the remaining active protein
Tie2 = Tie2 (Homo sapiens (Human), UniProt Q02763); assay: Kinase inhibition assay (KinaseProfiler, 33P-ATP); assay type: biochemical; settings: Tie2 (h); compound at 10 μM; read-out: The percentage of the remaining active protein
MDA-MB-435 = assay: Cell proliferation inhibition assay (MTT); assay type: cell-based, human; settings: Homo sapiens, MDA-MB-435, MTT, 72 hours
BT474 = assay: Cell proliferation inhibition assay (MTT); assay type: cell-based; settings: Homo sapiens, BT-474; BT474; MTT, 72 hours; read-out: Proliferation inhibitory activity IC50
Method: as §1

MDA-MB-468 = assay: Cell proliferation inhibition assay (MTT); assay type: cell-based; settings: Homo sapiens; MDA-MB-468; MTT, 72 hours; read-out: Proliferation inhibitory activity IC50
Method: as §1

HT29 = assay: Cell proliferation inhibition assay (MTT); assay type: cell-based; settings: Homo sapiens, HT-29; HT29; MTT, 72 hours; read-out: Proliferation inhibitory activity IC50
Method: as §1

B-Raf = B-Raf (Homo sapiens (Human), UniProt P15056); assay: Kinase inhibition assay (KinaseProfiler, 33P-ATP)
B-Raf, sequence (P15056 whole entry): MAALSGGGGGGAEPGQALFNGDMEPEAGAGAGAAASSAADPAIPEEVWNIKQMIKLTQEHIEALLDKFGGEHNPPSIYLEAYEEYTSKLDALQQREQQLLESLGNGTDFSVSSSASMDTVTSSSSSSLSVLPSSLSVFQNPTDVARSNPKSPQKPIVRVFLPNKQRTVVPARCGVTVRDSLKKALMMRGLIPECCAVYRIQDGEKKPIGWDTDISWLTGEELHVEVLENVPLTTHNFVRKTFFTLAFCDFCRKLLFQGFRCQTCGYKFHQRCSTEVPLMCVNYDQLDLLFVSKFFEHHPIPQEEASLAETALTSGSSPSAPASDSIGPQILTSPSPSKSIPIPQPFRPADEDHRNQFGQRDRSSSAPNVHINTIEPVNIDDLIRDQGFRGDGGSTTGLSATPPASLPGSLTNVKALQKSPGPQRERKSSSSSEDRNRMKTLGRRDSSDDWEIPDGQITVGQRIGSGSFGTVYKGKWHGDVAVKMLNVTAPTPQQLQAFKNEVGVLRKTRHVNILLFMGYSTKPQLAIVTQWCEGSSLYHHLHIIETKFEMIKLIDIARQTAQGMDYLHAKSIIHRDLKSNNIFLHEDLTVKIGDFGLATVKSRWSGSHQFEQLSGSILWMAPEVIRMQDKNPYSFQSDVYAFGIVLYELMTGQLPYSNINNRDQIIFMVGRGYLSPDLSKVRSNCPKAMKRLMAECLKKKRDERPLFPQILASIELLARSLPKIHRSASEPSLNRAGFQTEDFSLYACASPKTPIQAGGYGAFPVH

Lyn = Lyn (Homo sapiens (Human), UniProt P07948); assay: Kinase inhibition assay (KinaseProfiler, 33P-ATP); assay type: biochemical; settings: Lyn(h); compound at 10 μM; read-out: The percentage of the remaining active protein
[1] = tested on: breast cancer cell line MDA-MB-231; assay type: in vivo; settings: nude mice
Method: When the tumors grew to volumes of 200 mm^3, all the mice were randomized into groups (6 mice for each group) and dosed with indicated compounds.
Observation indexes: mouse body weight and the tumor size were measured once every three days, the tumor volume is calculated (length×width^2×0.5).

Btk = Btk (Homo sapiens (Human), UniProt Q06187); assay: Kinase inhibition assay (KinaseProfiler, 33P-ATP); assay type: biochemical
Btk, sequence (Q06187 whole entry): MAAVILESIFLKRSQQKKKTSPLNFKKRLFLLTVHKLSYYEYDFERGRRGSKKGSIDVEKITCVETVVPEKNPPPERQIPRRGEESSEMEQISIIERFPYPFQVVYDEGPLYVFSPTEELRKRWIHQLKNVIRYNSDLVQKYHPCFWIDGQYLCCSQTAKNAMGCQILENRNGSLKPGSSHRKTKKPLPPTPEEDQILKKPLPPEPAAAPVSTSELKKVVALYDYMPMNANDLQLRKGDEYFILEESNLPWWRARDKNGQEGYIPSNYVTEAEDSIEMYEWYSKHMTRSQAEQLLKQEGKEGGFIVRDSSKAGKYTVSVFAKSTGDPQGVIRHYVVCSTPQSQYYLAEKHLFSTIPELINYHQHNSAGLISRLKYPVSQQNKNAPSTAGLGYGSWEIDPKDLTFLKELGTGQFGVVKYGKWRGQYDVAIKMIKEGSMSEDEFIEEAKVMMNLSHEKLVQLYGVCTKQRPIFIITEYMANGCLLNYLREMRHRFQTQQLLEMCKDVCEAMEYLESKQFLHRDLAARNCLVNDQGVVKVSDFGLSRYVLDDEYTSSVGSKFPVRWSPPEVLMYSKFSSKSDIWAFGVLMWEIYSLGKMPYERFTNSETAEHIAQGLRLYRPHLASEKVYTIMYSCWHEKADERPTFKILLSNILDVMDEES

EphA2 = EphA2 (Homo sapiens (Human), UniProt P29317); assay: Kinase inhibition assay (KinaseProfiler, 33P-ATP)
MDA-MB-231 = assay: Cell proliferation inhibition assay (MTT); assay type: cell-based, human; settings: Homo sapiens, MDA-MB-231, MTT, 72 hours
HepG2 = assay: Cell proliferation inhibition assay (MTT); assay type: cell-based; settings: Homo sapiens, 72 hours, read-out: Proliferation inhibitory activity IC50
Method: as §1

TAK1 = TAK1 (Homo sapiens (Human), UniProt O43318); assay: Kinase inhibition assay (KinaseProfiler, 33P-ATP); assay type: biochemical
TAK1, sequence (O43318 1-303): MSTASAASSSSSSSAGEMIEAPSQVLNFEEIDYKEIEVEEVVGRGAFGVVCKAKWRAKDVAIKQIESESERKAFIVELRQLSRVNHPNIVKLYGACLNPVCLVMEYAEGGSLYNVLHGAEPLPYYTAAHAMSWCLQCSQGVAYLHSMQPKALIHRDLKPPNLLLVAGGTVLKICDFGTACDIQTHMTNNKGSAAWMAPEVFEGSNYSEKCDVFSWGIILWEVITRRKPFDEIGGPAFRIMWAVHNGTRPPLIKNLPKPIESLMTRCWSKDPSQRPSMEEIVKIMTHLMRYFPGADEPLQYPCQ

A375 = assay: Cell proliferation inhibition assay (MTT); assay type: cell-based; settings: Homo sapiens, A-375; A375; MTT, 72 hours; read-out: Proliferation inhibitory activity IC50
Method: as §1

IKKα = IKKα (Homo sapiens (Human), UniProt O15111); assay: Kinase inhibition assay (KinaseProfiler, 33P-ATP); assay type: biochemical; settings: IKKα(h); compound at 10 μM; read-out: The percentage of the remaining active protein
DDR1 = DDR1 (Homo sapiens (Human), UniProt Q08345); assay: Kinase inhibition assay (KinaseProfiler, 33P-ATP); assay type: biochemical; settings: DDR1; ATP at Km
Itk(h) = Itk(h) (Homo sapiens (Human), UniProt Q08881); assay: Kinase inhibition assay (KinaseProfiler, 33P-ATP); assay type: biochemical; settings: compound at 10 μM, read-out: The percentage of the remaining active protein
Fms(h) = Fms(h) (Homo sapiens (Human), UniProt P07333); assay: Kinase inhibition assay (KinaseProfiler, 33P-ATP); assay type: biochemical; settings: compound at 10 μM, read-out: The percentage of the remaining active protein
Fms(h), sequence (P07333 20-972): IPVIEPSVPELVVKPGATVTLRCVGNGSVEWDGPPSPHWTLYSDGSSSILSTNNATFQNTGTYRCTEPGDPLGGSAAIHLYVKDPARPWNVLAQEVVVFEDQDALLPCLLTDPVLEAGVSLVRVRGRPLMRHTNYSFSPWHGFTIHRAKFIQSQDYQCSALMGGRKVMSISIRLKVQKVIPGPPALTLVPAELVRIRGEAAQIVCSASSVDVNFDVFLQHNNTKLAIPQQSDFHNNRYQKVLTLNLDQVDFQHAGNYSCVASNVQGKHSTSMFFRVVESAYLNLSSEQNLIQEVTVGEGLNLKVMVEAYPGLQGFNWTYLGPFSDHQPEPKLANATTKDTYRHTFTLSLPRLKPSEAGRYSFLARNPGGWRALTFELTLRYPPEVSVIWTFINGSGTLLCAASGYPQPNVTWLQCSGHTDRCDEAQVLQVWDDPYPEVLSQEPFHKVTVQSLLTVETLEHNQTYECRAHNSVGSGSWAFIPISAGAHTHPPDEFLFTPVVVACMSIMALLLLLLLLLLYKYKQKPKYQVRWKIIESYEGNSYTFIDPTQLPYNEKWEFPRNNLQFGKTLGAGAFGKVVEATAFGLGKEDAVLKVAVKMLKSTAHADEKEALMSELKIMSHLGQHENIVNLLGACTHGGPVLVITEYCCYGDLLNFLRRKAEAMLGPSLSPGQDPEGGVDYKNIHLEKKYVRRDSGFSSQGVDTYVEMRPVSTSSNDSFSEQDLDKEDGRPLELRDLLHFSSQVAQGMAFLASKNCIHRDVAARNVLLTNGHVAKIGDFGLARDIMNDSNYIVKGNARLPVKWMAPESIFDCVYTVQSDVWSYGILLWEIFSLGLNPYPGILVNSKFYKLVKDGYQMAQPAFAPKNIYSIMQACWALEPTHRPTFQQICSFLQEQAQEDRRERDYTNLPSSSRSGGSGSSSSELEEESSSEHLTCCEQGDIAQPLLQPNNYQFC

CDK7 = CDK7 (Homo sapiens (Human), UniProt P50613); assay: Kinase inhibition assay (KinaseProfiler, 33P-ATP); assay type: biochemical; settings: CDK7; compound at 10 μM; read-out: The percentage of the remaining active protein
PKBα(h) = PKBα(h) (Homo sapiens (Human), UniProt P31749); assay: Kinase inhibition assay (KinaseProfiler, 33P-ATP); assay type: biochemical; settings: compound at 10 μM, read-out: The percentage of the remaining active protein
MEK1(h) = MEK1(h) (Homo sapiens (Human), UniProt Q02750); assay: Kinase inhibition assay (KinaseProfiler, 33P-ATP); settings: read-out: The percentage of the remaining active protein
Blk = Blk (Homo sapiens (Human), UniProt P51451); assay: Kinase inhibition assay (KinaseProfiler, 33P-ATP); assay type: biochemical
Blk, sequence (P51451 whole entry): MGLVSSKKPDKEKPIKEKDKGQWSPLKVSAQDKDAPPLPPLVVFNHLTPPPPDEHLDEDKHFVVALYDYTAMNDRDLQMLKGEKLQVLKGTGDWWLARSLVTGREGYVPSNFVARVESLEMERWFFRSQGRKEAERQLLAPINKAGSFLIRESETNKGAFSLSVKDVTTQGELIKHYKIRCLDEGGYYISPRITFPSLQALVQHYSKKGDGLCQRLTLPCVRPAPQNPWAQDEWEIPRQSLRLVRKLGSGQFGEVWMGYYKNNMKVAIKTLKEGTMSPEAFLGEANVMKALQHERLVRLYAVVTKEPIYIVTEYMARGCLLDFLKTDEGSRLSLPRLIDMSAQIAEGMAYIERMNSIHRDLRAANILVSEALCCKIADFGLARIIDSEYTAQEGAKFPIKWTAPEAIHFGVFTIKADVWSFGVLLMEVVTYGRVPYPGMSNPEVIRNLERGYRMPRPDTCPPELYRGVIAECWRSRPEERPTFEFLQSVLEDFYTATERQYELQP

plc/prf/5 = assay: Cell proliferation inhibition assay (MTT); assay type: cell-based; settings: Homo sapiens, 72 hours, read-out: Proliferation inhibitory activity IC50
Method: as §1

EphB2 = EphB2 (Homo sapiens (Human), UniProt P29323); assay: Kinase inhibition assay (KinaseProfiler, 33P-ATP); assay type: biochemical
EphB2, sequence (P29323 19-1055): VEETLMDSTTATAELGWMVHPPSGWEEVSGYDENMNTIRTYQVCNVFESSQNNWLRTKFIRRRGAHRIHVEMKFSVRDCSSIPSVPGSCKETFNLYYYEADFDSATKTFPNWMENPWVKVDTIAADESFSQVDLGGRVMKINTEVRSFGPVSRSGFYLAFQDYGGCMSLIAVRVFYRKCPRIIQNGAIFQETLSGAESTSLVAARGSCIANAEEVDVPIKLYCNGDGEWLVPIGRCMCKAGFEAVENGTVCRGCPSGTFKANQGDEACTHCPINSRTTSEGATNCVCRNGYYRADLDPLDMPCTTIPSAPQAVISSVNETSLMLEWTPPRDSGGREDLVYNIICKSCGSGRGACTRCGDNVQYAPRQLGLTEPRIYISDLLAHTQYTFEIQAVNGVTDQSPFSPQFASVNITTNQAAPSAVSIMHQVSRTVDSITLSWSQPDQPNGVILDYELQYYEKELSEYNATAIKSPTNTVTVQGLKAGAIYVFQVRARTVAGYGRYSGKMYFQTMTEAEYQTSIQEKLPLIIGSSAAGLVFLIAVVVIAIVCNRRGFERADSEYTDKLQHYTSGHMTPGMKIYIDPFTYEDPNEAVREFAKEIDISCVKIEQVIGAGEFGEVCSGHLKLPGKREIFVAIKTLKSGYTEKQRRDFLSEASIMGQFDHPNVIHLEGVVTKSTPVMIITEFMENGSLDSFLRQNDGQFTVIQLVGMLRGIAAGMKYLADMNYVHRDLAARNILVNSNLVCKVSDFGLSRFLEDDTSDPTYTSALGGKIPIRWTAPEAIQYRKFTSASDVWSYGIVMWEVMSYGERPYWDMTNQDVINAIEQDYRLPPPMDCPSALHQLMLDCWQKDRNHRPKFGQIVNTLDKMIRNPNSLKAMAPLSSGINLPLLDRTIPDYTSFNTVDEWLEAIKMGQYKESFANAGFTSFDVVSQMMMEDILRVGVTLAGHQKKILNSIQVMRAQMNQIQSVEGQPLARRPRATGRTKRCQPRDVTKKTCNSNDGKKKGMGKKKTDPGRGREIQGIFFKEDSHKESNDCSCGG

EphB4 = EphB4 (Homo sapiens (Human), UniProt P54760); assay: Kinase inhibition assay (KinaseProfiler, 33P-ATP); assay type: biochemical; settings: EphB4; ATP at Km
[2] = read-out: The percentage of the remaining active protein
[3] = read-out: Proliferation inhibitory activity IC50

Cc1ccc(NC(=O)c2cccc(C(F)(F)F)c2)cc1C#Cc1nn(C2CCN(C)CC2)c2ncnc(N)c12 [Compound 31]
IC50 (HCT116): 230 nM
remaining activity at 10 µM (ARK5(h)): 115%
remaining activity at 10 µM (CHK1(h)): 100%
remaining activity at 10 µM (PAK1(h)): 36%
IC50 (c-Src(1-530); c-Src(1-530), ATP at Km): 2 nM
remaining activity at 10 µM (c-Src(1-530); [2]): 0%
remaining activity at 10 µM (JNK1α1(h)): 36%
remaining activity at 10 µM (Tie2): 3%
IC50 (MDA-MB-435; [3]): 14.7 nM
IC50 (MDA-MB-435; read-out: Proliferative inhibitory activity MDA-MB-435 (IC50 class)): < 100 nM
IC50 (BT474): > 10 µM
IC50 (MDA-MB-468): 3.22 µM
IC50 (HT29): 350 nM
IC50 (B-Raf; B-Raf, ATP at Km): 22 nM
remaining activity at 10 µM (B-Raf; [2]): 1%
remaining activity at 10 µM (Lyn): 0%
tumor growth inhibition ([1]; MDA-MB-231 subcutaneous tumor, 20 mg/kg per day, oral): significantly inhibit tumor growth
inhibitory effect compared to positive control ([1]; MDA-MB-231 subcutaneous tumor, vs paclitaxel 10 mg/kg per week tail vein, dasatinib 40 mg/kg daily oral): superior inhibitory effect compared to positive control (paclitaxel and dasatinib)
toxicity / side effects (weight loss, rash, diarrhea) during administration ([1]; test dose range, daily oral): low toxicity
remaining activity at 10 µM (Btk; BTK(h), compound at 10 μM, read-out: The percentage of the remaining active protein): -3%
IC50 (Btk; Btk, ATP at Km): 127 nM
IC50 (EphA2): 18 nM
IC50 (MDA-MB-231; [3]): 15.3 nM
IC50 (MDA-MB-231; read-out: Proliferative inhibitory activity MDA-MB-231 (IC50 class)): < 100 nM
IC50 (HepG2): 6.17 µM
remaining activity at 10 µM (TAK1; TAK1(h), compound at 10 μM, read-out: The percentage of the remaining active protein): 2%
IC50 (TAK1; TAK1, ATP at Km): 203 nM
IC50 (A375): 26.6 nM
remaining activity at 10 µM (IKKα): 14%
IC50 (DDR1): 4 nM
remaining activity at 10 µM (Itk(h)): 92%
remaining activity at 10 µM (Fms(h)): 1%
remaining activity at 10 µM (CDK7): 70%
remaining activity at 10 µM (PKBα(h)): 56%
remaining activity at 10 µM (MEK1(h)): 52%
remaining activity at 10 µM (Blk; Blk(h), compound at 10 μM, read-out: The percentage of the remaining active protein): -1%
IC50 (Blk; Blk, ATP at Km): 12 nM
IC50 (plc/prf/5): 3.97 µM
remaining activity at 10 µM (EphB2; EphB2(h), compound at 10 μM, read-out: The percentage of the remaining active protein): -1%
IC50 (EphB2; EphB2, ATP at Km): 10 nM
IC50 (EphB4): 11 nM
